This passage reports IC50 results from US6875760B2 (Novo Nordisk A/S, priority 1999, dated 2005).

This assay deals with T1, human glucagon receptor (Homo sapiens, UniProt P47871).
T1 construct: expressed in transfected cells; host or cells: BHK (baby hamster kidney) cells
As to the kind of experiment: Glucagon Binding Assay (III). Particulars: BHK cell membranes, WGA SPA beads, 125I-glucagon; read-out: Glu Bd Assay (III) IC50. A digest of the protocol: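 Membranes from BHK cells transfected with the human receptor, prepared at 4 °C, were used in a WGA-bead scintillation proximity binding format. Plates were shaken for 4 hours, left to settle 8–48 hours and then counted. Non-specific binding was defined with 500 nM glucagon.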

T1 sequence (P47871 26-477): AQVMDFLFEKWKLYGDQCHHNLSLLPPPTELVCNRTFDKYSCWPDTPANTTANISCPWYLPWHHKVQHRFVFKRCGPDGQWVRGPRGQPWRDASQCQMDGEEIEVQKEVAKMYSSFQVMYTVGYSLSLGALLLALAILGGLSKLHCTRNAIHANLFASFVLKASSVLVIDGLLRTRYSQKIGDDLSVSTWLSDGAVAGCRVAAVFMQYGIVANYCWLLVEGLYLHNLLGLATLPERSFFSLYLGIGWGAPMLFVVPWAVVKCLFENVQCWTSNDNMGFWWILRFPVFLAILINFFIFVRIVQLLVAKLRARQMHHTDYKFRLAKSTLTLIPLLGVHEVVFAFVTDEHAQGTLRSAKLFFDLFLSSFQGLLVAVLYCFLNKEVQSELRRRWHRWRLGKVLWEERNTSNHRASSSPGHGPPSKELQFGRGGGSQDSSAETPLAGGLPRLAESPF

Consider `CC(C)(C)c1ccc(N(Cc2ccc(C(=O)Nc3nn[nH]n3)cc2)C(=O)Nc2cc(Br)cc(C(F)(F)F)c2)cc1` [Example 263, 4-[3-(3-Bromo-5-trifluoromethylphenyl)-1-(4-tert-butylphenyl)ureidomethyl]-N-(2H-tetrazol-5-yl)benzamide], for which the IC50 worked out at 16 nM. On to `O=C(Nc1nn[nH]n1)c1ccc(CN(C(=O)Nc2cc(Br)cc(C(F)(F)F)c2)c2ccc(C3CCCCC3)cc2)cc1` [Example 264, 4-[3-(3-Bromo-5-trifluoromethylphenyl)-1-(4-cyclohexylphenyl)ureidomethyl]-N-(2H-tetrazol-5-yl)benzamide], for which the IC50 came out at 9 nM. With `CCN(c1ccccc1)S(=O)(=O)c1cccc(NC(=O)N(Cc2ccc(C(=O)NCCC(=O)O)cc2)c2ccc(C3CCCCC3)cc2)c1` [Example 265, 3-(4-{1-(4-Cyclohexylphenyl)-3-[3-(ethylphenylsulfamoyl)phenyl]ureidomethyl}benzoylamino)propionic acid] the figure was 30 nM. With `CN(c1ccccc1)S(=O)(=O)c1cccc(NC(=O)N(Cc2ccc(C(=O)Nc3nn[nH]n3)cc2)c2ccc(C3CCCCC3)cc2)c1` [Example 266, 4-{1-(4-Cyclohexylphenyl)-3-[3-(methylphenylsulfamoyl)phenyl]ureidomethyl}-N-(2H-tetrazol-5-yl)benzamide] the figure was 15 nM; with `O=C(Nc1nn[nH]n1)c1ccc(CN(C(=O)Nc2cccc(S(=O)(=O)N3CCc4ccccc43)c2)c2ccc(C3CCCCC3)cc2)cc1` [Example 267, 4-{1-(4-Cyclohexylphenyl)-3-[3-(2,3-dihydroindole-1-sulfonyl)phenyl]ureidomethyl}-N-(2H-tetrazol-5-yl)benzamide], 86 nM.

Regarding `O=C(Nc1nn[nH]n1)c1ccc(CN(C(=O)Nc2cc(C(F)(F)F)cc(C(F)(F)F)c2)c2ccc(C3=CCCCC3)cc2)cc1` [Example 268, 4-[3-(3,5-Bis-trifluoromethylphenyl)-1-(4-cyclohex-1-enylphenyl)ureidomethyl]-N-(2H-tetrazol-5-yl)benzamide], the IC50 came to 21 nM.

Take `O=C(Nc1nn[nH]n1)c1ccc(CN(C(=O)Nc2cc(Br)cc(C(F)(F)F)c2)c2ccc(C3=CCCCC3)cc2)cc1` [Example 269, 4-[3-(3-Bromo-5-trifluoromethylphenyl)-1-(4-cyclohex-1-enylphenyl)ureidomethyl]-N-(2H-tetrazol-5-yl)benzamide]: the IC50 worked out at 38 nM.

As for `O=C(Nc1nn[nH]n1)c1ccc(CN(C(=O)NCc2cc(F)cc(C(F)(F)F)c2)c2ccc(C3CCCCC3)cc2)cc1` [Example 270, 4-[1-(4-Cyclohexylphenyl)-3-(3-fluoro-5-trifluoromethylbenzyl)ureidomethyl]-N-(2H-tetrazol-5-yl)benzamide], the IC50 stood at 64 nM. With `O=C(Nc1nn[nH]n1)c1ccc(CN(C(=O)Nc2cc(C(F)(F)F)cc(C(F)(F)F)c2)c2ccc(C3CCCCC3)cc2)cc1` [Example 271, 4-[3-(3,5-Bis-trifluoromethylphenyl)-1-(4-cyclohexylphenyl)ureidomethyl]-N-(2H-tetrazol-5-yl)benzamide] the figure was 9 nM; with `CC(=O)c1ccc(NC(=O)N(Cc2ccc(C(=O)Nc3nn[nH]n3)cc2)c2ccc(C3CCCCC3)cc2)cc1` [Example 272, 4-[3-(4-Acetylphenyl)-1-(4-cyclohexylphenyl)ureidomethyl]-N-(2H-tetrazol-5-yl)benzamide], 192 nM. For the compound `CC(=O)c1ccc(NC(=O)N(Cc2ccc(C(=O)Nc3nn[nH]n3)cc2)C2CCC(C(C)(C)C)CC2)cc1` (stereo not drawn) [Example 273, 4-[3-(4-Acetylphenyl)-1-(4-tert-butylcyclohexyl)ureidomethyl]-N-(2H-tetrazol-5-yl)benzamide], the IC50 was determined as 319 nM. For `CC(C)(C)C1CCC(N(Cc2ccc(C(=O)Nc3nn[nH]n3)cc2)C(=O)Nc2cccc(C#N)c2)CC1` (stereo not drawn) [Example 274, 4-[1-(4-tert-Butylcyclohexyl)-3-(3-cyanophenyl)ureidomethyl]-N-(2H-tetrazol-5-yl)benzamide], the IC50 turned out to be 94 nM. Consider `CN(C)S(=O)(=O)c1cccc(NC(=O)N(Cc2ccc(C(=O)Nc3nn[nH]n3)cc2)c2ccc(C3CCCCC3)cc2)c1` [Example 275, 4-[1-(4-Cyclohexylphenyl)-3-(3-dimethylsulfamoylphenyl)ureidomethyl]-N-(2H-tetrazol-5-yl)benzamide], for which the IC50 is 101 nM. The figure for `CN(C)S(=O)(=O)c1cccc(NC(=O)N(Cc2ccc(C(=O)Nc3nn[nH]n3)cc2)c2ccc(C(C)(C)C)cc2)c1` [Example 276, 4-[1-(4-tert-Butylphenyl)-3-(3-dimethylsulfamoylphenyl)ureidomethyl]-N-(2H-tetrazol-5-yl)benzamide] is 313 nM; for `CC(C)(C)c1ccc(N(Cc2ccc(C(=O)Nc3nn[nH]n3)cc2)C(=O)Nc2cccc(S(=O)(=O)N3CCCCC3)c2)cc1` [Example 277] it is 411 nM; for `O=C(Nc1nn[nH]n1)c1ccc(CN(C(=O)Nc2cccc(SC(F)(F)F)c2)c2ccc(C3CCCCC3)cc2)cc1` [Example 278, 4-[1-(4-Cyclohexylphenyl)-3-(3-trifluoromethylsulfanylphenyl)ureidomethyl]-N-(2H-tetrazol-5-yl)benzamide] it is 88 nM. With `O=C(Nc1nn[nH]n1)c1ccc(CN(C(=O)Nc2ccccc2)c2ccc(C3CCCCC3)cc2)cc1` [Example 279, 4-[1-(4-Cyclohexylphenyl)-3-phenylureidomethyl]-N-(2H-tetrazol-5-yl)benzamide] the figure was 84 nM. The figure for `CCCCc1ccc(N(Cc2ccc(C(=O)Nc3nn[nH]n3)cc2)C(=O)Nc2ccccc2)cc1` [Example 280, 4-[1-(4-Butylphenyl)-3-phenylureidomethyl]-N-(2H-tetrazol-5-yl)benzamide] is 252 nM; for `CCCCc1ccc(N(Cc2ccc(C(=O)Nc3nn[nH]n3)cc2)C(=O)Nc2cccc(C#N)c2)cc1` [Example 281, 4-[1-(4-Butylphenyl)-3-(3-cyanophenyl)ureidomethyl]-N-(2H-tetrazol-5-yl)benzamide] it is 185 nM; for `CC(=O)c1cccc(NC(=O)N(Cc2ccc(C(=O)Nc3nn[nH]n3)cc2)c2ccc(C3CCCCC3)cc2)c1` [Example 283, 4-[3-(3-Acetylphenyl)-1-(4-cyclohexylphenyl)ureidomethyl]-N-(2H-tetrazol-5-yl)benzamide] it is 57 nM. `O=C(Nc1nn[nH]n1)c1ccc(CN(C(=O)Nc2ccc(Cl)c(C(F)(F)F)c2)c2ccc(OC(F)(F)F)cc2)cc1` [Example 284, 4-[3-(4-Chloro-3-trifluoromethylphenyl)-1-(4-trifluoromethoxyphenyl)ureidomethyl]-N-(2H-tetrazol-5-yl)benzamide]: the IC50 was 54 nM. Turning to `O=C(Nc1nn[nH]n1)c1ccc(CN(C(=O)Nc2cccc([N+](=O)[O-])c2)c2ccc(OC(F)(F)F)cc2)cc1` [Example 285], the IC50 came to 151 nM. The figure for `O=C(Nc1nn[nH]n1)c1ccc(CN(C(=O)Nc2cccc([N+](=O)[O-])c2)c2ccc(C3CCCCC3)cc2)cc1` [Example 286, 4-[1-(4-Cyclohexylphenyl)-3-(3-nitrophenyl)ureidomethyl]-N-(2H-tetrazol-5-yl)benzamide] is 26 nM; for `CC(C)(C)c1ccc(N(Cc2ccc(C(=O)Nc3nn[nH]n3)cc2)C(=O)Nc2cccc([N+](=O)[O-])c2)cc1` [Example 287, 4-[1-(4-tert-Butylphenyl)-3-(3-nitrophenyl)ureidomethyl]-N-(2H-tetrazol-5-yl)benzamide] it is 52 nM.
